Source: patent US8937088B2, “Ureas for the treatment and prevention of cancer” (Astar Biotech LLC, priority 2011, dated 2015)
Where two headings read alike, the source gives them in different places. Values belong to the molecule of their own block, whether it stands above or below them.

What was measured:
[1] = target: BRAF (Homo sapiens, UniProt P15056); experiment: In vitro kinase assay (Invitrogen SelectScreen Profiling Service), BRAF; type: biochemical
Protocol: (§1) Biological Test 1. In Vitro Kinase Assay for BRAF, FLT3 and KDR(VEGFR2) The inhibitory activities of the compounds of the invention were measured by Invitrogen's SelectScreen® Profiling Service.

[2] = target: T1, FLT3 (Homo sapiens, UniProt P36888); experiment: In vitro kinase assay (Invitrogen SelectScreen Profiling Service), FLT3; type: biochemical; details: FLT3, 0.1 μM
T1 sequence (P36888 27-993): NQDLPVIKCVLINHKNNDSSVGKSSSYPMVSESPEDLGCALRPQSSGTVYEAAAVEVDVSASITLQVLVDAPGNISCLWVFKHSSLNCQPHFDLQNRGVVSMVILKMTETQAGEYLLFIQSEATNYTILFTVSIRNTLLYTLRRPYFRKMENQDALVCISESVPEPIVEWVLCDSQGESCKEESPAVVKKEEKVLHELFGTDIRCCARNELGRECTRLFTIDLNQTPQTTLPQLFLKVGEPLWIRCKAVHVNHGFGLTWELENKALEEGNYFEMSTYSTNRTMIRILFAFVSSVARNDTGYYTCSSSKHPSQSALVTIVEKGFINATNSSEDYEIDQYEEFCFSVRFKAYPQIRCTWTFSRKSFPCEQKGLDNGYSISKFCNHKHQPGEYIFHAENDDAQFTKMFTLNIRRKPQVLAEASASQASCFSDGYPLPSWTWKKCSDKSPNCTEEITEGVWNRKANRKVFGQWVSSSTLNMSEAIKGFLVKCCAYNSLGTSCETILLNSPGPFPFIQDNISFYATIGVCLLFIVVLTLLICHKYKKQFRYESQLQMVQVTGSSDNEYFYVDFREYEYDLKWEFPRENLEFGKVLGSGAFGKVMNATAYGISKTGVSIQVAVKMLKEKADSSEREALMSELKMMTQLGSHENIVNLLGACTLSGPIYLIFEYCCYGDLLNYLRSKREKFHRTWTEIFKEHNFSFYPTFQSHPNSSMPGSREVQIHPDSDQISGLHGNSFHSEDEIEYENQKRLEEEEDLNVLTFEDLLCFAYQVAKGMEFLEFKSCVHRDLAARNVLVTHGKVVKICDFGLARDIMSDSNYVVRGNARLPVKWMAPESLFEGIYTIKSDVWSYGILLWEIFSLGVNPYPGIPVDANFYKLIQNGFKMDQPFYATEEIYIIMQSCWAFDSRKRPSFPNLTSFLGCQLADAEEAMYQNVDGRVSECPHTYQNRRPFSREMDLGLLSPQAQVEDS
Protocol: as §1

[3] = target: KDR(VEGFR2) (Homo sapiens, UniProt P35968); experiment: In vitro kinase assay (Invitrogen SelectScreen Profiling Service), KDR; type: biochemical
Sequence of KDR(VEGFR2) (P35968 20-1356): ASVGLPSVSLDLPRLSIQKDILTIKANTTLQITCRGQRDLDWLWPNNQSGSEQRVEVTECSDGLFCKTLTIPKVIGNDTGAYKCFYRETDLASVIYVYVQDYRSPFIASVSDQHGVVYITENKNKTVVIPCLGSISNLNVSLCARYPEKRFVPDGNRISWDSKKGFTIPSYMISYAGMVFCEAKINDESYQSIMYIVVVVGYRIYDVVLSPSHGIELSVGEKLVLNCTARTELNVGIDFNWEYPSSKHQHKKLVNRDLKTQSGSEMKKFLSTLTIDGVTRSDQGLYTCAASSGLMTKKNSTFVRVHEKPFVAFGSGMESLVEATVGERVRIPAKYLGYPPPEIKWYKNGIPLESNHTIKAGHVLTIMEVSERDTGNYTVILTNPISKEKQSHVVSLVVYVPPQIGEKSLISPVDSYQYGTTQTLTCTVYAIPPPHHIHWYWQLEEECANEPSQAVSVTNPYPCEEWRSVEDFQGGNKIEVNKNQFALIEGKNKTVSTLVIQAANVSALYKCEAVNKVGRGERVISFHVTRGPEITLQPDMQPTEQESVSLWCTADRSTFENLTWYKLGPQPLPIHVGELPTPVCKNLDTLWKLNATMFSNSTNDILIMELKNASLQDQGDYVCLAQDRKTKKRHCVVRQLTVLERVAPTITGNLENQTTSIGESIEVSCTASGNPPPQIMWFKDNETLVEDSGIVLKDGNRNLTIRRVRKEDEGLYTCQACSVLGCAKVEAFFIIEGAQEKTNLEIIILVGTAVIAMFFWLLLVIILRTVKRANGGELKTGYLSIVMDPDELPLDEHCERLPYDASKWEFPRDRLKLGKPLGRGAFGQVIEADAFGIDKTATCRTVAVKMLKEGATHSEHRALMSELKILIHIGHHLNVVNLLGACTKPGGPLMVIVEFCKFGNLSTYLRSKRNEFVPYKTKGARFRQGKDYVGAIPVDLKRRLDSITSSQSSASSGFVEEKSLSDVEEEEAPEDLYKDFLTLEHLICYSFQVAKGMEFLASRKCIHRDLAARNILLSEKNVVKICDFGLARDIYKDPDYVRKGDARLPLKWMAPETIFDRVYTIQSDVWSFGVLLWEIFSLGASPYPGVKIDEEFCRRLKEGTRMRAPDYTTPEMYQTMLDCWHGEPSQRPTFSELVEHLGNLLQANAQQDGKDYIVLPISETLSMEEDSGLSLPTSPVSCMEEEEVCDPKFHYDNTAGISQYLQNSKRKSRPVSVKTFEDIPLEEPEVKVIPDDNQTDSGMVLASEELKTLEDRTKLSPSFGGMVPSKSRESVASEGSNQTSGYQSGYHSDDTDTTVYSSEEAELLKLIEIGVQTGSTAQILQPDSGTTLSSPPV
Protocol: as §1

[4] = system: Hep3B (human hepatoma cell line); experiment: Cell death detection, trypan blue exclusion assay, Hep3B; type: cell-based; details: 5-day treatment
Protocol: (§2) Biological Test 2. Cell Death Detection Using Trypan Blue Exclusion Assay.
(§3) After drug treatment, cells were harvested by trypsinization with trypsin/EDTA for 10 min at 37° C. As some apoptotic cells detached from the culture substratum into the medium, these cells were also collected by centrifugation of the medium at 1,200 rpm for 5 min. The pooled cell pellets were resuspended and mixed with trypan blue dye. After Trypan blue stain was done, cells were counted by using a light microscope and a hemocytometer. Blue dye-incorporating cells were scored as being dead. Five hundred cells from randomly chosen fields were counted, and the number of dead cells was counted and expressed as a percentage of the total number of cells counted as shown in Tables 2 to 8 below.

[5] = system: HepG2 (human Hepatocellular carcinoma cell line); experiment: Cell death detection, trypan blue exclusion assay, HepG2; type: cell-based; details: HepG2, 5-day treatment
Protocol: as §2, §3

[6] = system: HT29 (human colon adenocarcinoma cell line); experiment: Cell death detection, trypan blue exclusion assay, HT29; type: cell-based; details: HT29, 5-day treatment
Protocol: as §2, §3

[7] = system: HUH7 (human hepatoma cell line); experiment: Cell death detection, trypan blue exclusion assay, HUH7; type: cell-based; details: Huh-7, 168 h, HUH7, 7-day treatment, read-out: Cell Death (%) at Tested Concentration
Protocol: as §2, §3

[8] = system: LNCaP (human prostate adenocarcinoma cell line); experiment: Cell death detection, trypan blue exclusion assay, LNCaP; type: cell-based; details: read-out: Cell Death (%) at Tested Concentration
Protocol: as §2, §3

[9] = system: HUH7 (human hepatoma cell line); experiment: Cell death detection, trypan blue exclusion assay, HUH7, in combination with AZD-6244; type: cell-based; details: HUH7, 6-day treatment, compound 0.5 μM
Protocol: as §2, §3

[10] = system: patient-derived primary squamous lung 14531 tumor; experiment: In vivo activity in SCID mouse model with lung cancer, 30-day treatment; details: patient-derived primary squamous lung 14531 tumor in mouse, compared to the control
Source text: Biological Test 4. In Vivo Activity in […] SCID Mouse Model with Lung Cancer
Biological Test 5. In Vivo Activity in Senograph SCID Mouse Model with Lung Cancer

Sequence of BRAF (P15056 whole entry): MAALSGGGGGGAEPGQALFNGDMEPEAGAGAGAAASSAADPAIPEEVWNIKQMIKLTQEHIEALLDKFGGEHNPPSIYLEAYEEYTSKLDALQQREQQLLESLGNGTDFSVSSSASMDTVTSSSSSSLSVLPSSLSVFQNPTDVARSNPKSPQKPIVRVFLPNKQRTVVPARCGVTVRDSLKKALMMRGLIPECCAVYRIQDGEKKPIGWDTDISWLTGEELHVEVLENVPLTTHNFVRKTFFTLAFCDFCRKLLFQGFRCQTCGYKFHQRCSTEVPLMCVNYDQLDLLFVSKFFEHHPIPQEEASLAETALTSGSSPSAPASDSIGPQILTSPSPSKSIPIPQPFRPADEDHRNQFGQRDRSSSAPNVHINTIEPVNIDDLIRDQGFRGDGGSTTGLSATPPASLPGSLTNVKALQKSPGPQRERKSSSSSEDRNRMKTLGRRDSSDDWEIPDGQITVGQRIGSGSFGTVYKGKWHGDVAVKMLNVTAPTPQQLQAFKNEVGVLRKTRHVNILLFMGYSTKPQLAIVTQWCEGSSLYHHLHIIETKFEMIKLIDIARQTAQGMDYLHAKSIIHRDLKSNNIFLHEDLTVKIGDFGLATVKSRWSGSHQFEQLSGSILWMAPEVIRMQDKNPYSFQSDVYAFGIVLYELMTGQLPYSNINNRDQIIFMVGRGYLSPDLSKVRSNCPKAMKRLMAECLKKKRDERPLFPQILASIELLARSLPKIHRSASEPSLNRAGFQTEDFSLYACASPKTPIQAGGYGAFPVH

inhibition at 0.1 µM [1]: 18%
inhibition at 0.1 µM [2]: 85%
inhibition at 0.1 µM [3]: 79%
SMILES: CNC(=O)c1cc(Oc2ccc(NC(=O)Nc3cccc(S(F)(F)(F)(F)F)c3)cc2)ccn1 [Example 1, N-methyl-4-[4-({[3-(pentafluoro-λ^6-sulfanyl)phenyl]carbamoyl}amino)phenoxy]pyridine-2-carboxamide]
Cell Death (%) at Tested Concentration ([4]; 0.25 uM): 3.8%
Cell Death (%) at Tested Concentration ([4]; 3.0 uM): 22.3%
Cell Death (%) at Tested Concentration ([4]; 5.0 uM): 92.7%
Cell Death (%) at Tested Concentration ([5]; 0.25 uM): 2.6%
Cell Death (%) at Tested Concentration ([5]; 3.0 uM): 32.4%
Cell Death (%) at Tested Concentration ([5]; 5.0 uM): 84.5%
Cell Death (%) at Tested Concentration ([6]; 2.5 uM): 12.4%
Cell Death (%) at Tested Concentration ([6]; 5.0 uM): 14.5%
Cell Death (%) at Tested Concentration ([6]; 10 uM): 68.7%
cytotoxicity at 1 µM [7]: 2%
cytotoxicity at 2.5 µM [7]: 5.1%
cytotoxicity at 5 µM [7]: 18.3%
cytotoxicity at 7.5 µM [7]: 52.7%
cytotoxicity at 10 µM [7]: 72.3%
cytotoxicity at 1 µM ([8]; 72 h, 3-day treatment): 1.6%
cytotoxicity at 2.5 µM ([8]; 72 h, 3-day treatment): 1.5%
cytotoxicity at 5 µM ([8]; 72 h, 3-day treatment): 1.3%
cytotoxicity at 7.5 µM ([8]; 72 h, 3-day treatment): 7.3%
cytotoxicity at 10 µM ([8]; 72 h, 3-day treatment): 62.5%
cytotoxicity at 1 µM ([8]; 168 h, 7-day treatment): 1.6%
cytotoxicity at 2.5 µM ([8]; 168 h, 7-day treatment): 2.8%
cytotoxicity at 5 µM ([8]; 168 h, 7-day treatment): 2.8%
cytotoxicity at 7.5 µM ([8]; 168 h, 7-day treatment): 99%
cytotoxicity at 10 µM ([8]; 168 h, 7-day treatment): 99%
Cell Death (%) in combination with AZD-6244 ([9]; AZD-6244 0 μM): 2.3%
Cell Death (%) in combination with AZD-6244 ([9]; AZD-6244 0.5 μM): 99%

inhibition at 0.1 µM [1]: 14%
inhibition at 0.1 µM [2]: 71%
inhibition at 0.1 µM [3]: 76%
SMILES: CNC(=O)c1cc(Oc2ccc(NC(=O)Nc3cccc(S(F)(F)(F)(F)F)c3)c(F)c2)ccn1 [Example 2, 4-[3-fluoro-4-({[3-(pentafluoro-λ^6-sulfanyl)phenyl]carbamoyl}amino)phenoxy]-N-methylpyridine-2-carboxamide]
Cell Death (%) at Tested Concentration ([4]; 0.25 uM): 4.1%
Cell Death (%) at Tested Concentration ([4]; 3.0 uM): 92.7%
Cell Death (%) at Tested Concentration ([4]; 5.0 uM): 98.5%
Cell Death (%) at Tested Concentration ([5]; 0.25 uM): 2.2%
Cell Death (%) at Tested Concentration ([5]; 3.0 uM): 94.7%
Cell Death (%) at Tested Concentration ([5]; 5.0 uM): 99%
Cell Death (%) at Tested Concentration ([6]; 2.5 uM): 12.3%
Cell Death (%) at Tested Concentration ([6]; 5.0 uM): 14.7%
Cell Death (%) at Tested Concentration ([6]; 10 uM): 24.8%
cytotoxicity at 1 µM [7]: 2.4%
cytotoxicity at 2.5 µM [7]: 7.3%
cytotoxicity at 5 µM [7]: 42.6%
cytotoxicity at 7.5 µM [7]: 72.6%
cytotoxicity at 10 µM [7]: 75.2%
cytotoxicity at 1 µM ([8]; 72 h, 3-day treatment): 1.7%
cytotoxicity at 2.5 µM ([8]; 72 h, 3-day treatment): 1.8%
cytotoxicity at 5 µM ([8]; 72 h, 3-day treatment): 1.6%
cytotoxicity at 7.5 µM ([8]; 72 h, 3-day treatment): 4.2%
cytotoxicity at 10 µM ([8]; 72 h, 3-day treatment): 83.7%
cytotoxicity at 1 µM ([8]; 168 h, 7-day treatment): 1.5%
cytotoxicity at 2.5 µM ([8]; 168 h, 7-day treatment): 2.7%
cytotoxicity at 5 µM ([8]; 168 h, 7-day treatment): 2.5%
cytotoxicity at 7.5 µM ([8]; 168 h, 7-day treatment): 17.3%
cytotoxicity at 10 µM ([8]; 168 h, 7-day treatment): 99%
Cell Death (%) in combination with AZD-6244 ([9]; AZD-6244 0 μM): 3.6%
Cell Death (%) in combination with AZD-6244 ([9]; AZD-6244 0.5 μM): 99%

inhibition at 0.1 µM [1]: 11%
inhibition at 0.1 µM [2]: 72%
inhibition at 0.1 µM [3]: 64%
SMILES: CNC(=O)c1cc(Oc2ccc(NC(=O)Nc3ccc(Cl)c(S(F)(F)(F)(F)F)c3)cc2)ccn1 [Example 3, 4-[4-({[4-chloro-3-(pentafluoro-λ^6-sulfanyl)phenyl]carbamoyl}amino)phenoxy]-N-methylpyridine-2-carboxamide]
Cell Death (%) at Tested Concentration ([4]; 0.25 uM): 3.3%
Cell Death (%) at Tested Concentration ([4]; 3.0 uM): 25.6%
Cell Death (%) at Tested Concentration ([4]; 5.0 uM): 90.7%
Cell Death (%) at Tested Concentration ([5]; 0.25 uM): 2.7%
Cell Death (%) at Tested Concentration ([5]; 3.0 uM): 4.2%
Cell Death (%) at Tested Concentration ([5]; 5.0 uM): 14.6%
Cell Death (%) at Tested Concentration ([6]; 2.5 uM): 11.4%
Cell Death (%) at Tested Concentration ([6]; 5.0 uM): 16.7%
Cell Death (%) at Tested Concentration ([6]; 10 uM): 30.7%
cytotoxicity at 1 µM [7]: 2.7%
cytotoxicity at 2.5 µM [7]: 4.5%
cytotoxicity at 5 µM [7]: 53.8%
cytotoxicity at 7.5 µM [7]: 79.6%
cytotoxicity at 10 µM [7]: 87.6%
cytotoxicity at 1 µM ([8]; 72 h, 3-day treatment): 1.3%
cytotoxicity at 2.5 µM ([8]; 72 h, 3-day treatment): 1.9%
cytotoxicity at 5 µM ([8]; 72 h, 3-day treatment): 4.3%
cytotoxicity at 7.5 µM ([8]; 72 h, 3-day treatment): 13.4%
cytotoxicity at 10 µM ([8]; 72 h, 3-day treatment): 91.8%
cytotoxicity at 1 µM ([8]; 168 h, 7-day treatment): 2.3%
cytotoxicity at 2.5 µM ([8]; 168 h, 7-day treatment): 2.8%
cytotoxicity at 5 µM ([8]; 168 h, 7-day treatment): 99%
cytotoxicity at 7.5 µM ([8]; 168 h, 7-day treatment): 99%
cytotoxicity at 10 µM ([8]; 168 h, 7-day treatment): 99%
Cell Death (%) in combination with AZD-6244 ([9]; AZD-6244 0 μM): 1.9%
Cell Death (%) in combination with AZD-6244 ([9]; AZD-6244 0.5 μM): 94.6%

SMILES: CNC(=O)c1cc(Oc2ccc(NC(=O)Nc3ccc(Cl)c(C(F)(F)F)c3)cc2)ccn1 [Sorafenib, reference compound]
Cell Death (%) at Tested Concentration ([4]; 0.25 uM): 3.0%
Cell Death (%) at Tested Concentration ([4]; 3.0 uM): 12.5%
Cell Death (%) at Tested Concentration ([4]; 5.0 uM): 88.2%
Cell Death (%) at Tested Concentration ([5]; 0.25 uM): 2.2%
Cell Death (%) at Tested Concentration ([5]; 3.0 uM): 6.4%
Cell Death (%) at Tested Concentration ([5]; 5.0 uM): 8.2%
Cell Death (%) at Tested Concentration ([6]; 2.5 uM): 11.6%
Cell Death (%) at Tested Concentration ([6]; 5.0 uM): 14.3%
Cell Death (%) at Tested Concentration ([6]; 10 uM): 27.6%
cytotoxicity at 1 µM ([8]; 72 h, 3-day treatment): 1.6%
cytotoxicity at 2.5 µM ([8]; 72 h, 3-day treatment): 1.7%
cytotoxicity at 5 µM ([8]; 72 h, 3-day treatment): 2.3%
cytotoxicity at 7.5 µM ([8]; 72 h, 3-day treatment): 2.4%
cytotoxicity at 10 µM ([8]; 72 h, 3-day treatment): 81.3%
cytotoxicity at 1 µM ([8]; 168 h, 7-day treatment): 1.6%
cytotoxicity at 2.5 µM ([8]; 168 h, 7-day treatment): 1.6%
cytotoxicity at 5 µM ([8]; 168 h, 7-day treatment): 2.8%
cytotoxicity at 7.5 µM ([8]; 168 h, 7-day treatment): 14.7%
cytotoxicity at 10 µM ([8]; 168 h, 7-day treatment): 99%
Cell Death (%) in combination with AZD-6244 ([9]; AZD-6244 0 μM): 1.9%
Cell Death (%) in combination with AZD-6244 ([9]; AZD-6244 0.5 μM): 97.3%
effect in reducing the tumor volume [10]: significant effect in reducing the tumor volume
